Experimental data published in US20090233917A1, “Stroke recovery” (priority 2006, published 2009).

Columns and labels:
[1] = Cerebrospinal fluid (CSF) levels after oral administration in humans; type: in vivo, human; details: 3 and 6 hours after oral administration, increasing doses
[2] = tested on: rat cortical neurons (mixed cortical cultures); assay: Oxygen/glucose deprivation (OGD) of rat cortical neurons, cell death by LDH release; type: cell-based, Wistar rat; details: all concentrations (0.1-50 μM) except 0.2 μM; added one hour after onset of OGD
Method: Mixed cortical cultures were prepared from E18 Wistar rat embryos (National Animal Center, Kuopio, Finland). The cortices were dissected and the tissue cut into small pieces. The cells were separated by fifteen minute incubation with DNase and papain. The cells were collected by centrifugation (1500 rpm, 5 min). The tissue was triturated with a pipette and the cells were placed on poly-L-lysine coated 48-well plates, 300,000 cells/cm2, in MEM (2 g/L glucose) supplemented with 2 mM glutamine, 0.1 μg/mL gentamicin, 10% heat-inactivated fetal bovine serum (FSB-HI) and 10% heat-inactivated horse serum (HS-HI). After 3-4 hours, the medium was changed to MEM (2 g/L glucose) and supplemented with 2 mM glutamine, 0.1 μg/mL gentamicin, 5% HS-HI. After three days in vitro, cells were transferred into medium containing MEM (2 g/L glucose) supplemented with glutamine, gentamicin and 5% each of FSB-HI and HS-HI sera. On day 6 in vitro, unwanted cell division was inhibited by adding cytosine arabinoside (10 μM final concentration) for 24 hours. […]
After 24 hours, possible cell debris was removed by centrifugation (13,000 rpm, 3 min.). […] The absorbance at 340 nm was measured immediately using a 3 min. kinetic measurement protocol in Multiskan ELISA reader (Labsystems, Finland). The change in absorbance/min was determined, which is directly proportional to the released LDH (=cell death).

[3] = tested on: embolic middle cerebral artery occlusion (MCAO) in rats; assay: Functional recovery following embolic MCAO in rats (Example 13); type: in vivo, Wistar rats; details: for foot fault test, compared to EPO treatment group: 10 h treatment group
Description: The purpose of this study was to evaluate the efficacy of arimoclomol in enhancing neurological recovery in a model of embolic middle cerebral artery occlusion (MCAO) in rats (Zhang R L et al. Brain Research 766:83-92, 1997). The embolic MCAO model emulates the damage caused by an embolic stroke which is generally the result of ischemia associated damage or diseases. The embolic MCAO model also closely models the types of damage caused by a stroke because the occlusion is not permanent. Moreover, the embolus often undergoes spontaneous clot lysis and reperfusion within 24-48 hours post-stroke, which is similar to a subset of human stroke. Damage from a stroke can be brought about in two ways. […] Second, the resulting pressure from the initial surge in blood volume once the occlusion is cleared can also result in further neurological damage and damage to the effected blood vessel. This embolic stroke model provides guidance for the neurological recovery resulting from each of these phenomena.
Sixty male Wistar rats between 8-12 weeks of age were operated on to isolate the external carotid artery (ECA) and the internal carotid artery (ICA). A single clot was introduced into the ECA lumen through a PE-50 catheter (0.3 mm outer diameter) attached to a 100 μL Hamilton syringe filled with 0.9% saline via a small puncture. A 16 mm length of the PE-50 catheter was advanced from the ECA into the lumen of the ICA. Subsequently, the clot was injected into the ICA with 2-3 μL of 0.9% saline. The catheter was withdrawn and the right ECA ligated.
The rats were then randomly divided into 6 groups of 10 animals each. To the control group, phosphate buffered saline (PBS) was administered, p.o., starting at six hours after embolic stroke for 28 consecutive days. To the second group, Erythropoitein (EPO) was administered, i.p., starting at 24 hours after embolic stroke for 7 consecutive days (41.7 μg/kg/d). To the third group, arimoclomol was administered daily p.o. (200 mg/kg/d), starting 6 hours after embolic stroke for 28 consecutive days. To the fourth group, arimoclomol was administered daily p.o. (200 mg/kg/d), starting 10 hours after embolic stroke for 28 consecutive days. To the fifth group, arimoclomol was administered p.o. (200 mg/kg/d), starting 24 hours after embolic stroke for 28 consecutive days. To the sixth group, arimoclomol was administered p.o. (200 mg/kg/d), starting 48 hours after embolic stroke for 28 consecutive days.
Animals were evaluated at 1, 3, 7, 14, 21, and 28 days after initiation of embolic stroke by a modified neurological severity score (mNSS) and adhesive-removal and foot fault tests. These tests are widely accepted as standard tests indicative of functional recovery after a stroke. (Chen et al., Ann Neurol 53: 743-751, 2003; Wang et al., Stroke 35: 1732-1737, 2004; Zhang et al, Circulation 3486-3494, 2005).
For the modified neurological severity score (mNSS), the severity of injury was graded on a scale of 0 to 18. This score was determined via the evaluation of a variety of motor tests, sensory tests, balance beam tests and reflex tests as illustrated in Table II below. To determine the score resulting from these tests, one point was awarded for the inability to perform any of the tests or for the lack of a tested reflex. Accordingly, the higher the score, the more severe the injury. (Chen et al., Ann Neurol 53: 743-751, 2003; Wang et al., Stroke 35: 1732-1737, 2004; Zhang et al, Circulation 3486-3494, 2005).
For the adhesive removal test, the rats are trained prior to embolic stroke to remove strips of packing tape (5 cm). The training period constitutes of 3 sessions. Each session consists of 6 bilateral stimulation trials conducted over 2 days wherein the 5 cm strips of packing tape were placed firmly around both wrists of the animal so that they covered the hairless part of the forepaw. […]

[4] = 6 h, 10 h, and 24 h treatment groups, on and after the 14-day time point

## [O-][n+]1cccc(/C(Cl)=N/OC[C@H](O)CN2CCCCC2)c1 [arimoclomol, N-[2-hydroxy-3-(1-piperidinyl)propoxy]-pyridine-1-oxide-3-carboximidoyl chloride]
[1]
  penetration of the human blood-brain barrier (CSF levels): penetrates the human blood-brain barrier
[2]
  cytoprotection against OGD as measured by LDH release: cytoprotective
[3]; 200 mg/kg/d p.o., start 6 h, 10 h, 24 h and 48 h after embolic stroke, after the 14 day time point
  adhesive-removal test, recovery compared to control group: significantly superior
[3]; [4]
  foot fault test, recovery compared to control groups: significantly superior
  mNSS test, recovery compared to control groups: significantly greater
[3]; 6 h and 10 h treatment groups, after 28 days of treatment
  infarct volume compared to control groups: significantly lower percentage of infarct volume
[3]; 21-day time point
  foot fault test, compared to EPO treatment group: significantly superior
[3]; 28-day time point
  foot fault test, compared to EPO treatment group: slightly superior
[3]; day 28, each time group (6, 10, 24, 48 h)
  adhesive-removal test, improvement percentage compared to control: greater than 25%
